From US9422321B2, “Pyrimidine nucleoside derivatives, synthesis methods and uses thereof for preparing anti-tumor and anti-virus medicaments” (High & New Technology Research Center, Henan Academy of …, priority 2010, dated 2016)
Several values for one entry are separate records, joined by “and”; a condition that tells them apart may be missing. Equal entries are not always repeated.

Legend:
VSVG/HIV-luc (NL4-3) = assay: microbe, parasite or virus in culture; type: cell-based, HIV-1; conditions: Human immunodeficiency virus 1, NL43, HEK-293T; for EC50: 48 h, read-out: EC50 (μM) VSVG/HIV-luc (NL4-3)
HCV-RNA = assay: In vitro anti-HCV activity, quantitative determination of HCV-RNA; type: cell-based, hepatitis C virus (HCV); conditions: for levels of HCV-RNA: control 0 μg/mL: Exp 1 5.3 × 10^2, Exp 2 4.0 × 10^2
Method: HCV replication cells (Avva.5) were cultivated in Dulbecco's modified Eagle medium containing 10% fetal calf serum and 1 mg/mL G418. 293-Sip-L cells were cultivated in Dulbecco's modified Eagle medium containing 10% fetal calf serum, 250 μg/mL G418 and 150 μg/mL hygromycin B.
Cells in a Φ60 mm Petri dish were incubated in positive medium containing 100 μL HCV for 12 h, then in fresh medium free of HCV that was replaced every day. When being tested for HCV-RNA seven days after the infection, cells were trypsinized and washed with Dulbecco's modified Eagle medium twice through a centrifugation method. The upper layer from the second wash (as a control) and the washed cells were collected in pairs and used for RNA extraction and RT-PCR test. The β-actin mRNA was determined simultaneously as a control.
The quantitative determination of HCV-RNA was performed using automatic PCR enzyme-linked immunoassay (version 2.0, Roche Diagnostics, Branchburg, N.J.).
The levels of HCV-RNA were determined using automatic PCR enzyme-linked immunoassay.

HBsAg = assay: In vitro inhibition of HBV: HBsAg in HepG2.2.15 cells by ELISA; type: cell-based; conditions: Hepatitis B virus, HepG2.2.15, read-out: IC50 (μM) (HBsAg)
Method: (§1) A tube of frozen HepG2.2.15 cells taken from a liquid nitrogen tank was quickly placed into a water bath at 42° C. and shaken to thaw. DMEM complete medium (fetal bovine serum 10%, G418 380 μg/mL, Penicillin 100 U/ml, Streptomycin 100 U/ml) was used for cell culturing at conditions of 37° C. and 5% CO2. The number of cell passage in normal growing cells was once per 2-3 days.
(§2) The effect of a compound on HBV surface antigen s and antigen e in the cell culture was detected using a screening concentration lower than the half toxic concentration of the compound. HepG2.2.15 cells in logarithmic growth phase were selected and digested with trypsin into single cell suspension, and were seeded to a 24-well plate at a concentration of 2×10^4/mL, 1 mL per well. Media of different medicament concentrations were added, three wells for each concentration, and cells added with complete medium were set as normal control. Cell supernatants and cells at day 3, day 6 and day 9 were collected and kept under −20° C. The intracellular and extracellular expressions of e antigen and surface antigen at day 3, day 6 and day 9 were determined by ELISA.
(§3) 2.4 Effect of the Compound on HBeAg and HBsAg in HepG2.2.15 Cell Supernatant Detected by ELISA
(§4) The instructions of the kit were followed;
(§5) Measurement: OD value of each well was read from microplate reader using dual wavelength 450/630 nm.
(§6) Result determination: The Cutoff value was first calculated according to equation: COV=average OD of negative control×2.1. Then, if a sample had OD≧COV, the result was determined as positive, or if a sample had OD≦COV, the result was determined as negative.

[1] = system: human lymphoma Raji cells; assay: Inhibition of cell growth by MTT reduction; type: cell-based; conditions: read-out: Inhibitory activity, IC50
Method: Cell culturing: Raji cells in RPMI1640 culture solution containing 10% fetal calf serum were incubated in an incubator at 37° C. with 5% CO2 for 2-3 days. Cells in logarithmic growth phase were used for the experiment.
Cells in logarithmic growth phase were taken and after the cell density was adjusted to 5×10^4 cells/mL, they were seeded to three 96-well plates separately, 100 μL per well. The culture solution was replaced after 24 h cell culturing. […] The blank group (for zeroing) was only added with RPMI1640 culture solution containing 10% fetal calf serum and no cell was added. The control group was added with an equal volume of RPMI1640 culture solution containing 10% fetal calf serum. Each group had 5 replicates. After cells were incubated for 24 h, 48 h and 72 h separately, 20 μL MTT solution (5 mg/mL) was added to each well followed by a 4 h incubation. The supernatant was removed by sucking it out and discarded. 150 μL DMSO was added per well, vortexed about 5 min to mix evenly. After the crystal was completely dissolved, the absorption (A) value at 570 nm of each well was tested within 20 min on enzyme-linked immuno analyzer. The experiment was repeated 3 times and the average was taken to calculate the inhibition rate of cell growth by the following equation. Inhibition rate of cell growth=(1−average A value of experimental group/average A value of control group)×100%

[2] = MTT test of cytotoxicity on HepG2.2.15 cells; type: cell-based; conditions: human, read-out: CC50 (μM) (HepG2. 2. 15)
Method: as §1
Cytotoxicity of the compound on HepG2.2.15 cells was tested with the MTT colorimetric assay established by Mosmann. After continuous incubation for 72 h, 10 μL MTT was added to each well. Four hours later, the supernatant was discarded and 200 μL DMSO was added to each well. The OD value in each well was read using a microplate reader (measurement wavelength 490 nm, reference wavelength 630 nm). The result was recorded and the percentage inhibition of HepG2.2.15 cells by each compound was calculated:
The half toxic concentration (TC50) of the medicament on cells was calculated according to the percentage inhibition of the cell by the medicament.

[3] = MTS test of effects of the compound on cell survival; type: cell-based; conditions: human, 293T cells
Method: Then, 20 μL freshly prepared mixture of MTS/PMS was added to each well and after 4 h incubation in the incubator at 37° C. with 5% CO2, the color was developed. The light absorption (OD) of each well at wavelengths 490 nm and 650 nm (background) was detected on an enzyme linked immuno analyzer, and the survival rate of cells was calculated.

HBeAg = assay: In vitro inhibition of HBV: HBeAg in HepG2.2.15 cells by ELISA; type: cell-based; conditions: Hepatitis B virus, HepG2.2.15, read-out: IC50 (μM) (HBeAg)
Method: as §1, §2, §3, §4, §5, §6

Structure (SMILES): [N-]=[N+]=N[C@]1(CO)O[C@@H](n2ccc(NCCN)nc2=O)C(F)C1O (stereo partly shown) [Compound 5-02]
- EC50 (VSVG/HIV-luc (NL4-3)): 0.093 ± 0.067 µM
- levels of HCV-RNA (HCV-RNA; 0.06 μg/mL in the culture): 4.5 × 10^2 and 4.2 × 10^2
- levels of HCV-RNA (HCV-RNA; 0.6 μg/mL in the culture): 0.90 × 10^2 and 0.70 × 10^2
- levels of HCV-RNA (HCV-RNA; 6 μg/mL in the culture): 1.0 × 10^2 and 0.80 × 10^2
- inhibitory effect on HCV (HCV-RNA; concentrations 6, 0.6 and 0.06 μg/mL): exhibited inhibitory effect
- IC50 (HBsAg): 8.05 µM
- IC50 [1]: 45 µM
- CC50 at 72 h [2]: ≥ 25 µM
- CC50 at 44 h [3]: ≥ 25 µM

Structure (SMILES): COC(=O)CC[C@H](Nc1ccn([C@@H]2O[C@@](CO)(N=[N+]=[N-])C(O)C2F)c(=O)n1)C(=O)OC (stereo partly shown) [Compound 7b]
- EC50 (VSVG/HIV-luc (NL4-3)): 0.7 ± 0.1 µM
- IC50 (HBsAg): 0.02 µM
- IC50 (HBeAg): 6.16 µM
- IC50 [1]: 28 µM
- CC50 at 72 h [2]: > 1250 µM
- CC50 at 44 h [3]: ≥ 25 µM

Structure (SMILES): COC(=O)C[C@H](Nc1ccn([C@@H]2O[C@@](CO)(N=[N+]=[N-])C(O)C2F)c(=O)n1)C(=O)OC (stereo partly shown) [Compound 8e]
- EC50 (VSVG/HIV-luc (NL4-3)): 12 ± 2.8 µM
- IC50 (HBsAg): 20.5 µM
- IC50 (HBeAg): 12.8 µM
- CC50 at 72 h [2]: 231 µM
- CC50 at 44 h [3]: ≥ 25 µM

Structure (SMILES): [N-]=[N+]=N[C@]1(CO)O[C@@H](n2ccc(N(CCO)CCO)nc2=O)C(F)C1O (stereo partly shown) [Compound 5-19]
- EC50 (VSVG/HIV-luc (NL4-3)): 0.8 ± 0.7 µM
- IC50 (HBsAg): 0.009 µM
- IC50 [1]: 1.6 µM
- CC50 at 72 h [2]: > 1250 µM
- CC50 at 44 h [3]: ≥ 25 µM

Structure (SMILES): [N-]=[N+]=N[C@]1(CO)O[C@@H](n2ccc(NO)nc2=O)C(F)C1O (stereo partly shown) [Compound 5-17]
- EC50 (VSVG/HIV-luc (NL4-3)): 0.7 ± 0.2 µM
- IC50 (HBsAg): 0.07 µM
- IC50 (HBeAg): 0.11 µM
- CC50 at 72 h [2]: 951 µM
- CC50 at 44 h [3]: ≥ 25 µM

Structure (SMILES): COC(=O)[C@@H](Cc1cc2ccccc2[nH]1)Nc1ccn([C@@H]2O[C@@](CO)(N=[N+]=[N-])C(O)C2F)c(=O)n1 (stereo partly shown) [Compound 7c]
- EC50 (VSVG/HIV-luc (NL4-3)): 0.5 µM
- inhibition at 10 µM (VSVG/HIV-luc (NL4-3); read-out: Inhibitory activity at 10 μM): 38.8 ± 3.3%
- IC50 (HBsAg): 0.2 µM
- IC50 (HBeAg): 0.32 µM
- CC50 at 72 h [2]: ≥ 280 µM
- CC50 at 44 h [3]: ≥ 25 µM

Structure (SMILES): [N-]=[N+]=N[C@]1(CO)O[C@@H](n2ccc(NCC(=O)O)nc2=O)C(F)C1O (stereo partly shown) [Compound 8a]
- EC50 (VSVG/HIV-luc (NL4-3)): 5.1 ± 1.1 µM
- IC50 (HBsAg): 13.8 µM
- IC50 (HBeAg): 16.7 µM
- CC50 at 72 h [2]: > 250 µM
- CC50 at 44 h [3]: ≥ 25 µM

Structure (SMILES): COC(=O)C(C)Nc1ccn([C@@H]2O[C@@](CO)(N=[N+]=[N-])C(O)C2F)c(=O)n1 (stereo partly shown) [Compound 7m]
- EC50 (VSVG/HIV-luc (NL4-3)): 10 ± 6.6 µM
- IC50 (HBsAg): 1.89 µM
- IC50 (HBeAg): 21.2 µM
- CC50 at 72 h [2]: 311 µM
- CC50 at 44 h [3]: ≥ 25 µM
